This is an account of results in patent publication US20090136616A1, “METHODS OF FEEDING RUMINANTS ON WINTER FORAGE SUPPLEMENTING WITH ZEOLITE” (priority 2007, published 2009).

Read-outs that look alike come from different tables or passages of the source.

In one series the test system is feedlot cattle. Put plainly: Summary of seven feedlot experiments with Biolite in med and n-med finishing diets (rumen pH, liver abscesses, performance). As to conditions: sample collected by Geishauser Probe prior to the morning feeding; B at 1.2% DMB. The format is in vivo.
For series [1], the system named is Char-Hereford cross heifer calves. The format is in vivo. As for the experimental part:
The experimental animals were Char-Hereford cross unweaned heifer calves originating from Western Ontario and Eastern Manitoba Canada. On arrival they were vaccinated for IBR, PI3 and BVD. They were treated for internal and external parasites with Ivomec. They were implanted with Synovex C.
Approximately 350 head of calves were purchased weighing approximately 500 lbs. From this group 160 head and were selected for the experiment and randomly allotted into four experimental groups. Each treatment contains 5 reps of 8 head each. They were grown on a medium energy level diet limit fed calculated to obtain a daily gain of approximately 2.6 lbs. Length of feeding period will be approximately 100 days. After arrival and prior to the trial allotment they were each-backgrounded for approximately 3-4 weeks. They averaged approximately 550 lbs at the beginning of the trial.
Data collected included: • 1. Gain, consumption and conversions at 28 day intervals and overall. • 2. Observations on bloat and metabolic problems. • 3. Cost of gain by treatment including feed and feed additive cost, with no yardage or “mark up”.
Originally the trial was scheduled for 100 days, but because of unusually good performance, it was decided to terminate at 91 days.

Series [2] deals with Angus cross steer and heifer calves. The note with it: bovine, in vivo. As for the experimental part: The experimental animals were Angus cross steer and heifer calves from Manitoba, Canada. They were trucked to the experimental feedlot located near Kitchener, Ontario, Canada. On arrival of the animal received IBR, PIP and BVD vaccine plus Covexina. They were also treated for internal and external parasites with Ivomec pour on. Prior to the beginning of this trial the calves were preconditioned for approximately 45 days and adapted to a high concentrate diet.
Following the preconditioning period, unhealthy calves were removed and the remaining calves were divided into steer and heifer groups. These groups were then divided at random into 20 pens of steers and 20 pens of heifers. Each of the pens contained 8 head of calves. Five pens of steers and 5 pens of heifers were then allotted to each of 4 experimental treatments.
Initial, 28 day interim weights and final weights were based on gross weights less a 4% pencil shrink. Experimental data collected included average daily gain, feed consumption and feed conversions. In addition, death loss and bloat problems were observed. At the termination of the trial, Rumen pH was measured on 4 animals from each treatment using a Geishauser Probe. The pH measurements were taken at 2, 4 and 6 hours after feeding.
A calcium clinoptilolite zeolite (Biolite®) was added in place of an equivalent amount of corn. […]

Where [3] appears, read: summarized: NC vs RT and BL vs no BL treatments pooled.

From the text for feedlot cattle: These diets have been composed of corn silage for roughage, flaked corn, and a substantial amount of wet corn milling byproducts.
The feed additives used included Monensin sodium (R) and Tylosin phosphate (T).
Data collected included daily gain, consumption, feed efficiency, rumen pH and observations on bloat and metabolic problems. Carcass data including liver abscess occurrence were collected.
Rumen samples were collected from cattle prior to the morning feeding using a Geishauser Probe.

As for Monensin sodium [R], the “rumen pH” value in the series on feedlot cattle is reported as “R 6.43b means with different super script letter differ, P < .OS O 6.46b”.
Regarding Nova-Cell + Biolite [NC + BL], in series [1] (bovine, in vivo), the “Bloat Treated” value is recorded as 0.
As to Nova-Cell [NC], in series [1] (91 days), the “Bloat Died” value was 0, the “Bloat Treated” value was found to be 0, the Consumption is recorded as 17.0αb and the Conversions came out at 5.97b. This substance also registered an ADG in series [1] (91 days, limit fed grow ration, BL at 1.2% DMB) of 2.85b. Also, in series [1] (setting [3]), the ADG is listed as 3.03α, the Consumption is 17.11α and the Conversions is 5.70.
Turning to “calcium clinoptilolite zeolite [Biolite ®]”, the “Metabolics Treated” value in series [2] was determined as 4.
